Each structure is given as a SMILES string.

For orientation: GI50 means the concentration at which growth is held to half of that of the control.

A short description of data set [1]: Antiproliferative activity against human HLF assessed as growth inhibition after 72 hrs by MTT assay. Conditions: HLF cells.
The nature of data set [2]: Antiproliferative activity against human SGC7901 cells assessed as growth inhibition after 72 hrs by MTT assay. In kind it is functional. Conditions: SGC-7901, 72 h. For orientation: Tetrazolium assays rely on reduction of a dye to a coloured formazan, in cell work by metabolically active cells.
The subject of a further data set is HCT-116. The data set can be described thus: Antiproliferative activity against human HCT116 cells assessed as growth inhibition after 72 hrs by MTT assay. It is filed as functional. Conditions: HCT-116, 72 h.

Regarding `O[C@H](COCCOC[C@@H](O)Cc1cn(-c2cncc3ccccc23)nn1)Cc1ccc(-c2ccccc2)cc1`, the GI50 at 72 h in data set [1] worked out at 10.8 µM. Further, the values for the GI50 (in data set [2]; with HCT-116) were 29.3 µM and 17.8 µM, respectively.
The matching figures for `O[C@H](COCCOC[C@@H](O)Cc1cn(-c2cccnc2)nn1)Cc1ccc(-c2ccccc2)cc1`: above 100 µM, 29.8 µM and 46.8 µM.
The like results for `O[C@H](COCCOC[C@@H](O)Cc1cn(Cc2ccc3ccccc3c2)nn1)Cc1ccc(-c2ccccc2)cc1` were, in that order, 19.8 µM, 12.1 µM and 8.6 µM.
The like results for `CC1=C(C)C(=O)C(CCCCCCCCCCn2cc(C[C@H](O)COCCOC[C@@H](O)Cc3ccc(-c4ccccc4)cc3)nn2)=C(C)C1=O` were, in that order, above 25 µM, 0.35 µM and 0.9 µM.
In the case of `O=c1[nH]c2ccc(-n3cc(C[C@H](O)COCCOC[C@@H](O)Cc4ccc(-c5ccccc5)cc4)nn3)cc2s1`, the GI50 at 72 h in data set [1] was determined as 47.7 µM. Also, the GI50 in data set [2] turned out to be 10.5 µM; in the data set on HCT-116, 9.2 µM.
Consider `O[C@H](COCCOC[C@@H](O)Cc1cn(-c2ccc3c(c2)OCCO3)nn1)Cc1ccc(-c2ccccc2)cc1`, for which, in data set [1], the GI50 at 72 h was found to be 5.2 µM. Further, the GI50 in data set [2] was 6.4 µM; in the data set on HCT-116 it was 16.5 µM.
As to `O[C@H](COCCOC[C@@H](O)Cc1cn(-c2cccs2)nn1)Cc1ccc(-c2ccccc2)cc1`, the concentration for 50% growth inhibition (GI50) at 72 h in data set [1] was above 100 µM. Further, the concentration for 50% growth inhibition (GI50) (in data set [2]; in the data set on HCT-116) was 33.4 µM throughout.
On to `O[C@H](COCCOC[C@@H](O)Cc1cn(Cc2cccc(-c3ccccc3)c2)nn1)Cc1ccc(-c2ccccc2)cc1`, for which the GI50 at 72 h in data set [1] was above 100 µM. The 50% growth inhibitory concentration (GI50) is 10.6 µM in data set [2] and 7.2 µM in the data set with HCT-116.
The like results for `CCCCCCCCCC[C@H](O)COCCOC[C@@H](O)CCCCCCCCCCCCC1=C[C@H](C)OC1=O` were, in that order, 27.8 µM, 0.076 µM and 0.181 µM.
Regarding `COC1=C(OC)C(=O)C(CCCCCCCCCCn2cc(C[C@H](O)COCCOC[C@@H](O)Cc3ccc(-c4ccccc4)cc3)nn2)=C(C)C1=O`, the GI50 at 72 h in data set [1] is 18.3 µM. Besides, the GI50 in data set [2] came out at 3.8 µM; in the data set on HCT-116, 0.6 µM.
Take `O[C@H](COCCOC[C@@H](O)Cc1cn(-c2ccc(N3CCOCC3)cc2)nn1)Cc1ccc(-c2ccccc2)cc1`: in data set [1], the GI50 at 72 h was above 100 µM. For the same compound, the 50% growth inhibitory concentration (GI50) in data set [2] was 20.7 µM; in the data set with HCT-116, 8.3 µM.
For the compound `N#Cc1ccc(Cn2cc(C[C@H](O)COCCOC[C@@H](O)Cc3ccc(-c4ccccc4)cc3)nn2)cc1`, the GI50 at 72 h in data set [1] was 36.6 µM. Besides, the GI50 in data set [2] stood at 7.7 µM; with HCT-116, 8.8 µM.
The matching figures for `O[C@H](COCCOC[C@@H](O)Cc1cn(-c2ccc3[nH]ccc3c2)nn1)Cc1ccc(-c2ccccc2)cc1`: above 100 µM, 45.6 µM and 15.5 µM.
The matching figures for `COc1cccc2c1C(=O)c1c(O)c3c(c(O)c1C2=O)C[C@@](O)(C(=O)CO)C[C@@H]3O[C@H]1C[C@H](N)[C@H](O)[C@H](C)O1` [DOXORUBICIN]: 0.33 µM, 0.55 µM and 0.15 µM.
`CC1=C(CCCCCCCCCCn2cc(C[C@H](O)COCCOC[C@@H](O)Cc3ccc(-c4ccccc4)cc3)nn2)C(=O)c2ccccc2C1=O`: the GI50 at 72 h in data set [1] is 22.6 µM. Also, the GI50 in data set [2] amounted to 0.39 µM; with HCT-116, 3 µM.
The matching figures for `O[C@H](COCCOC[C@@H](O)Cc1cn(-c2cncnc2)nn1)Cc1ccc(-c2ccccc2)cc1`: above 100 µM, above 100 µM and above 100 µM.
With `COC1=C(C)C(=O)C(CCCCCCCCCCn2cc(C[C@H](O)COCCOC[C@@H](O)Cc3ccc(-c4ccccc4)cc3)nn2)=C(C)C1=O`, the GI50 at 72 h in data set [1] was determined as 35.1 µM. For the same compound, the GI50 turned out to be 0.505 µM in data set [2] and 4 µM in the data set on HCT-116.
On to `O[C@H](COCCOC[C@@H](O)Cc1cn(Cc2ccc(Oc3ccccc3)cc2)nn1)Cc1ccc(-c2ccccc2)cc1`, for which, in data set [1], the GI50 at 72 h came to 22.8 µM. Besides, the GI50 was 4.5 µM in data set [2] and 3.4 µM with HCT-116.
`COC1=C(OC)C(=O)C(CCCCCCCCCCCCCCCn2cc(C[C@H](O)COCCOC[C@@H](O)Cc3ccc(-c4ccccc4)cc3)nn2)=C(C)C1=O`: the GI50 at 72 h in data set [1] is above 50 µM. The GI50 in data set [2] came out at 2.49 µM; with HCT-116, 1.5 µM.
The matching figures for `O=C1COc2ccc(-n3cc(C[C@H](O)COCCOC[C@@H](O)Cc4ccc(-c5ccccc5)cc4)nn3)cc2N1`: above 100 µM, 15.2 µM and 42.5 µM.
The like results for `COC1=C(OC)C(=O)C(CCCCCCn2cc(C[C@H](O)COCCOC[C@@H](O)Cc3ccc(-c4ccccc4)cc3)nn2)=C(C)C1=O` were, in that order, above 50 µM, 16.6 µM and 5 µM.
The matching figures for `O[C@H](COCCOC[C@@H](O)Cc1c[nH]nn1)Cc1ccc(-c2ccccc2)cc1`: above 100 µM, above 100 µM and above 100 µM.
Regarding `O[C@H](COCCOC[C@@H](O)Cc1cn(Cc2ccc(C(F)(F)F)cc2)nn1)Cc1ccc(-c2ccccc2)cc1`, the GI50 at 72 h in data set [1] is 29.8 µM. Moreover, the figures for the GI50 (in data set [2]; in the data set on HCT-116) were 8.7 µM and 2.5 µM, respectively.

The values above are taken from ChEMBL document CHEMBL3232896, “Biological evaluation of new mimetics of annonaceous acetogenins: alteration of right scaffold by click linkage with aromatic functionalities” (Eur J Med Chem, 2014).
